In the NIST ThermoML archive (doi:10.1021/je800224k):

Settings: Liquid

CCCCCCn1cc[n+](C)c1.F[P-](F)(F)(F)(F)F [1-hexyl-3-methylimidazolium hexafluorophosphate]
Settings | mass density [kg/m3]
293.15 K, 101.33 kPa, Vibrating tube method | 1297
312.9 K, 10000 kPa, Bellows volumetry | 1287
312.9 K, 20000 kPa, Bellows volumetry | 1292
312.9 K, 30000 kPa, Bellows volumetry | 1298
312.9 K, 40000 kPa, Bellows volumetry | 1303
312.9 K, 50000 kPa, Bellows volumetry | 1308
312.9 K, 60000 kPa, Bellows volumetry | 1313
312.9 K, 70000 kPa, Bellows volumetry | 1318
312.9 K, 80000 kPa, Bellows volumetry | 1322
312.9 K, 90000 kPa, Bellows volumetry | 1327
312.9 K, 100000 kPa, Bellows volumetry | 1331
312.9 K, 110000 kPa, Bellows volumetry | 1335
312.9 K, 120000 kPa, Bellows volumetry | 1339
312.9 K, 130000 kPa, Bellows volumetry | 1343
312.9 K, 140000 kPa, Bellows volumetry | 1347
312.9 K, 150000 kPa, Bellows volumetry | 1351
312.9 K, 160000 kPa, Bellows volumetry | 1355
312.9 K, 170000 kPa, Bellows volumetry | 1358
312.9 K, 180000 kPa, Bellows volumetry | 1362
312.9 K, 190000 kPa, Bellows volumetry | 1366
312.9 K, 200000 kPa, Bellows volumetry | 1369
313.15 K, 101.33 kPa, Vibrating tube method | 1280.7
332.6 K, 10000 kPa, Bellows volumetry | 1271
332.6 K, 20000 kPa, Bellows volumetry | 1277
332.6 K, 30000 kPa, Bellows volumetry | 1283
332.6 K, 40000 kPa, Bellows volumetry | 1289
332.6 K, 50000 kPa, Bellows volumetry | 1294
332.6 K, 60000 kPa, Bellows volumetry | 1299
332.6 K, 70000 kPa, Bellows volumetry | 1304
332.6 K, 80000 kPa, Bellows volumetry | 1309
332.6 K, 90000 kPa, Bellows volumetry | 1313
332.6 K, 100000 kPa, Bellows volumetry | 1318
332.6 K, 110000 kPa, Bellows volumetry | 1322
332.6 K, 120000 kPa, Bellows volumetry | 1326
332.6 K, 130000 kPa, Bellows volumetry | 1330
332.6 K, 140000 kPa, Bellows volumetry | 1334
332.6 K, 150000 kPa, Bellows volumetry | 1338
332.6 K, 160000 kPa, Bellows volumetry | 1342
332.6 K, 170000 kPa, Bellows volumetry | 1346
332.6 K, 180000 kPa, Bellows volumetry | 1350
332.6 K, 190000 kPa, Bellows volumetry | 1353
332.6 K, 200000 kPa, Bellows volumetry | 1357
333.15 K, 101.33 kPa, Vibrating tube method | 1265.1
352.7 K, 10000 kPa, Bellows volumetry | 1256
352.7 K, 20000 kPa, Bellows volumetry | 1262
352.7 K, 30000 kPa, Bellows volumetry | 1268
352.7 K, 40000 kPa, Bellows volumetry | 1274
352.7 K, 50000 kPa, Bellows volumetry | 1280
352.7 K, 60000 kPa, Bellows volumetry | 1285
352.7 K, 70000 kPa, Bellows volumetry | 1290
352.7 K, 80000 kPa, Bellows volumetry | 1295
352.7 K, 90000 kPa, Bellows volumetry | 1300
352.7 K, 100000 kPa, Bellows volumetry | 1305
352.7 K, 110000 kPa, Bellows volumetry | 1309
352.7 K, 120000 kPa, Bellows volumetry | 1314
352.7 K, 130000 kPa, Bellows volumetry | 1318
352.7 K, 140000 kPa, Bellows volumetry | 1322
352.7 K, 150000 kPa, Bellows volumetry | 1326
352.7 K, 160000 kPa, Bellows volumetry | 1330
352.7 K, 170000 kPa, Bellows volumetry | 1334
352.7 K, 180000 kPa, Bellows volumetry | 1338
352.7 K, 190000 kPa, Bellows volumetry | 1342
352.7 K, 200000 kPa, Bellows volumetry | 1345
353.15 K, 101.33 kPa, Vibrating tube method | 1249.8
372.9 K, 10000 kPa, Bellows volumetry | 1241
372.9 K, 20000 kPa, Bellows volumetry | 1248
372.9 K, 30000 kPa, Bellows volumetry | 1254
372.9 K, 40000 kPa, Bellows volumetry | 1260
372.9 K, 50000 kPa, Bellows volumetry | 1266
372.9 K, 60000 kPa, Bellows volumetry | 1271
372.9 K, 70000 kPa, Bellows volumetry | 1277
372.9 K, 80000 kPa, Bellows volumetry | 1282
372.9 K, 90000 kPa, Bellows volumetry | 1287
372.9 K, 100000 kPa, Bellows volumetry | 1292
372.9 K, 110000 kPa, Bellows volumetry | 1296
372.9 K, 120000 kPa, Bellows volumetry | 1301
372.9 K, 130000 kPa, Bellows volumetry | 1306
372.9 K, 140000 kPa, Bellows volumetry | 1310
372.9 K, 150000 kPa, Bellows volumetry | 1314
372.9 K, 160000 kPa, Bellows volumetry | 1318
372.9 K, 170000 kPa, Bellows volumetry | 1322
372.9 K, 180000 kPa, Bellows volumetry | 1326
372.9 K, 190000 kPa, Bellows volumetry | 1330
372.9 K, 200000 kPa, Bellows volumetry | 1334
393 K, 10000 kPa, Bellows volumetry | 1226
393 K, 20000 kPa, Bellows volumetry | 1233
393 K, 30000 kPa, Bellows volumetry | 1240
393 K, 40000 kPa, Bellows volumetry | 1246
393 K, 50000 kPa, Bellows volumetry | 1252
393 K, 60000 kPa, Bellows volumetry | 1258
393 K, 70000 kPa, Bellows volumetry | 1264
393 K, 80000 kPa, Bellows volumetry | 1269
393 K, 90000 kPa, Bellows volumetry | 1274
393 K, 100000 kPa, Bellows volumetry | 1279
393 K, 110000 kPa, Bellows volumetry | 1284
393 K, 120000 kPa, Bellows volumetry | 1289
393 K, 130000 kPa, Bellows volumetry | 1293
393 K, 140000 kPa, Bellows volumetry | 1298
393 K, 150000 kPa, Bellows volumetry | 1302
393 K, 160000 kPa, Bellows volumetry | 1306
393 K, 170000 kPa, Bellows volumetry | 1310
393 K, 180000 kPa, Bellows volumetry | 1314
393 K, 190000 kPa, Bellows volumetry | 1318
393 K, 200000 kPa, Bellows volumetry | 1322
412.9 K, 10000 kPa, Bellows volumetry | 1211
412.9 K, 20000 kPa, Bellows volumetry | 1219
412.9 K, 30000 kPa, Bellows volumetry | 1226
412.9 K, 40000 kPa, Bellows volumetry | 1232
412.9 K, 50000 kPa, Bellows volumetry | 1239
412.9 K, 60000 kPa, Bellows volumetry | 1245
412.9 K, 70000 kPa, Bellows volumetry | 1251
412.9 K, 80000 kPa, Bellows volumetry | 1256
412.9 K, 90000 kPa, Bellows volumetry | 1262
412.9 K, 100000 kPa, Bellows volumetry | 1267
412.9 K, 110000 kPa, Bellows volumetry | 1272
412.9 K, 120000 kPa, Bellows volumetry | 1277
412.9 K, 130000 kPa, Bellows volumetry | 1282
412.9 K, 140000 kPa, Bellows volumetry | 1286
412.9 K, 150000 kPa, Bellows volumetry | 1291
412.9 K, 160000 kPa, Bellows volumetry | 1295
412.9 K, 170000 kPa, Bellows volumetry | 1299
412.9 K, 180000 kPa, Bellows volumetry | 1303
412.9 K, 190000 kPa, Bellows volumetry | 1307
412.9 K, 200000 kPa, Bellows volumetry | 1311
432.8 K, 10000 kPa, Bellows volumetry | 1197
432.8 K, 20000 kPa, Bellows volumetry | 1205
432.8 K, 30000 kPa, Bellows volumetry | 1212
432.8 K, 40000 kPa, Bellows volumetry | 1219
432.8 K, 50000 kPa, Bellows volumetry | 1226
432.8 K, 60000 kPa, Bellows volumetry | 1232
432.8 K, 70000 kPa, Bellows volumetry | 1238
432.8 K, 80000 kPa, Bellows volumetry | 1244
432.8 K, 90000 kPa, Bellows volumetry | 1250
432.8 K, 100000 kPa, Bellows volumetry | 1255
432.8 K, 110000 kPa, Bellows volumetry | 1260
432.8 K, 120000 kPa, Bellows volumetry | 1265
432.8 K, 130000 kPa, Bellows volumetry | 1270
432.8 K, 140000 kPa, Bellows volumetry | 1275
432.8 K, 150000 kPa, Bellows volumetry | 1279
432.8 K, 160000 kPa, Bellows volumetry | 1284
432.8 K, 170000 kPa, Bellows volumetry | 1288
432.8 K, 180000 kPa, Bellows volumetry | 1292
432.8 K, 190000 kPa, Bellows volumetry | 1297
432.8 K, 200000 kPa, Bellows volumetry | 1301
452.5 K, 10000 kPa, Bellows volumetry | 1183
452.5 K, 20000 kPa, Bellows volumetry | 1191
452.5 K, 30000 kPa, Bellows volumetry | 1199
452.5 K, 40000 kPa, Bellows volumetry | 1206
452.5 K, 50000 kPa, Bellows volumetry | 1213
452.5 K, 60000 kPa, Bellows volumetry | 1219
452.5 K, 70000 kPa, Bellows volumetry | 1226
452.5 K, 80000 kPa, Bellows volumetry | 1232
452.5 K, 90000 kPa, Bellows volumetry | 1237
452.5 K, 100000 kPa, Bellows volumetry | 1243
452.5 K, 110000 kPa, Bellows volumetry | 1248
452.5 K, 120000 kPa, Bellows volumetry | 1254
452.5 K, 130000 kPa, Bellows volumetry | 1259
452.5 K, 140000 kPa, Bellows volumetry | 1263
452.5 K, 150000 kPa, Bellows volumetry | 1268
452.5 K, 160000 kPa, Bellows volumetry | 1273
452.5 K, 170000 kPa, Bellows volumetry | 1277
452.5 K, 180000 kPa, Bellows volumetry | 1282
452.5 K, 190000 kPa, Bellows volumetry | 1286
452.5 K, 200000 kPa, Bellows volumetry | 1290
472.3 K, 10000 kPa, Bellows volumetry | 1169
472.3 K, 20000 kPa, Bellows volumetry | 1177
472.3 K, 30000 kPa, Bellows volumetry | 1185
472.3 K, 40000 kPa, Bellows volumetry | 1193
472.3 K, 50000 kPa, Bellows volumetry | 1200
472.3 K, 60000 kPa, Bellows volumetry | 1207
472.3 K, 70000 kPa, Bellows volumetry | 1213
472.3 K, 80000 kPa, Bellows volumetry | 1220
472.3 K, 90000 kPa, Bellows volumetry | 1226
472.3 K, 100000 kPa, Bellows volumetry | 1231
472.3 K, 110000 kPa, Bellows volumetry | 1237
472.3 K, 120000 kPa, Bellows volumetry | 1242
472.3 K, 130000 kPa, Bellows volumetry | 1247
472.3 K, 140000 kPa, Bellows volumetry | 1253
472.3 K, 150000 kPa, Bellows volumetry | 1257
472.3 K, 160000 kPa, Bellows volumetry | 1262
472.3 K, 170000 kPa, Bellows volumetry | 1267
472.3 K, 180000 kPa, Bellows volumetry | 1271
472.3 K, 190000 kPa, Bellows volumetry | 1276
472.3 K, 200000 kPa, Bellows volumetry | 1280
